Type in all cases: cell-based
One data set addresses T1, human PepT2 (Homo sapiens, UniProt Q16348).
T1 construct: expressed in transfected cells; host or cells: murine bone marrow-derived BaF3 cells
T1 sequence (Q16348 1-729): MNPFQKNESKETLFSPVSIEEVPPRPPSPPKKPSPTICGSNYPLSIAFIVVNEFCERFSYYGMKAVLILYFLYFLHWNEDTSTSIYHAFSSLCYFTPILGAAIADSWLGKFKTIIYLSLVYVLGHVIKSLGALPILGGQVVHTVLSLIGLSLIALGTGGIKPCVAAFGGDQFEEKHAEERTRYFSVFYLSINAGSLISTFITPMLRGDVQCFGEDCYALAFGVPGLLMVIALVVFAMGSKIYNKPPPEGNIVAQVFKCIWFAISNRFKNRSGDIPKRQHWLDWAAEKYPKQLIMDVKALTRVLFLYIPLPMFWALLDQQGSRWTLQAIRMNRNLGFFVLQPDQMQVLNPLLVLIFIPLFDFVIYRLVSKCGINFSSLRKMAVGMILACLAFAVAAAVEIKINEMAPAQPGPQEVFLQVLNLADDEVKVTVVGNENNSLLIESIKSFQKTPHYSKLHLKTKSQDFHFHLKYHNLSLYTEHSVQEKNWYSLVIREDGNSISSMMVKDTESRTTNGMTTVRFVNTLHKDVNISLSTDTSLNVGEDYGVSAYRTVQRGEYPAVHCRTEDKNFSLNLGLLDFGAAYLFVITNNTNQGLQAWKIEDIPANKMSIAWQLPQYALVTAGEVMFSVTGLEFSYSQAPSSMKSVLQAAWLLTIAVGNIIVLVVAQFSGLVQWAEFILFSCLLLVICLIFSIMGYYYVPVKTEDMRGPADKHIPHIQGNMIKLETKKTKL
The data set is described as follows: [3H] glycylsarcosine uptake into BaF3/PepT2 cells. The note with it: FIG. 4. An excerpt: FIG. 4 is a graph showing the PepT2 inhibiting ability of AT-264 in BaF3/PepT2. The data are shown as an average±S.D. (n=3 to 4).
The ability of AT-264 to inhibit PepT2 was examined using a murine bone marrow-derived cell line BaF3 in which human PepT2 is forcedly expressed (hereinafter, abbreviated as BaF3/PepT2).

Another data set has as its target T2, human PepT1 (Homo sapiens, UniProt P46059).
T2 sequence (P46059 1-708): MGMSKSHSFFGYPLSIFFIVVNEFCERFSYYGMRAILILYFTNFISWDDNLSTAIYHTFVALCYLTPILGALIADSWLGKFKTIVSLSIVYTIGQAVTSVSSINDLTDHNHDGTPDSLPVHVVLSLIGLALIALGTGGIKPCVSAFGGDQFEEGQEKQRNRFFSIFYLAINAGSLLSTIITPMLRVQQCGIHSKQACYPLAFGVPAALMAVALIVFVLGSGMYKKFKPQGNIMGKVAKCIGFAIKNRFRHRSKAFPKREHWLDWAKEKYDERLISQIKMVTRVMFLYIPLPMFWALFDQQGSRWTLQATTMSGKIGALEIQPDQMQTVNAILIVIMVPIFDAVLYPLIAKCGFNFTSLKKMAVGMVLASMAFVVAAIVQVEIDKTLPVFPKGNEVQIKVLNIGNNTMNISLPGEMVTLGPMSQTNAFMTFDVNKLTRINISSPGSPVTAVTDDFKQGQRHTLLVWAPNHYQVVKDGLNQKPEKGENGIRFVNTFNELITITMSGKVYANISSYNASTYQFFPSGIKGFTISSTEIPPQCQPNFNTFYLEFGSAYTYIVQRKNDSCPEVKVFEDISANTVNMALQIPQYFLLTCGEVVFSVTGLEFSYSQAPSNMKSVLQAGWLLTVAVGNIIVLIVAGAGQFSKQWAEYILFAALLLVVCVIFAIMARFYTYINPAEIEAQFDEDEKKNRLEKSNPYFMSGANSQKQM
The data set is described as follows: [14C] glycylsarcosine uptake into BaF3/PepT1 cells. As to conditions: FIG. 2. An excerpt:
FIG. 2 is a graph showing the PepT1 inhibiting ability of AT-264 in BaF3 cells.
The ability of AT-264 to inhibit PepT1 was examined by forcedly expressing human PepT1 in mouse bone marrow-derived BaF3 cells (hereinafter abbreviated as BaF3/PepT1).

Data set [1] has as its system human pancreatic cancer cell line AsPC-1. The data set is described as follows: Cell growth inhibition of AsPC-1, MTS assay after six days of culture. As to the method:
FIG. 3 is a graph showing the cell growth inhibitory effect of AT-264 against human pancreatic cancer cell line AsPC-1. The data are shown as an average±S.D. (n=3 to 4).
AT-264 was dissolved in RPMI1640-10 mM Hepes (hereinafter, abbreviated as ‘the medium’) containing 0.5% ethanol and 0.5% DMSO to prepare 2.5 mM AT-264 solution. Then, this solution was diluted with the medium to prepare 0.625 mM and 0.0625 mM AT-264 solutions.
A 5×10^4 cells/mL solution of human pancreatic cancer cell line AsPC-1 was prepared using a medium containing 50% FBS. This suspension was seeded at 40 μL/well (2×10^3 cells) onto a 96-well plate pre-coated with Collagen type I, and 160 μL of the AT-264 solution was added. This was cultured for six days in a CO2 incubator (on the second day of culture, 100 units/mL penicillin and 0.1 mg/mL streptomycin were added). On the sixth day of culture, the number of viable cells was quantified by MTS assay.
For orientation: Formazan colour is commonly taken as a measure of viable cells.

Data set [2] concerns human pancreatic cancer cell line BxPC-3. The data set is described as follows: Cell growth inhibition of BxPC-3, MTS assay after six days of culture. The procedure:
FIG. 5 is a graph showing the cell growth inhibitory effect of AT-264 against human pancreatic cancer cell line BxPC-3. The data are shown as an average±S.D. (n=6).
AT-264 was dissolved in RPMI1640-10 mM Hepes with 100 units/mL penicillin and 0.1 mg/mL streptomycin (hereinafter, abbreviated as ‘the medium’) containing 0.5% ethanol and 0.5% DMSO to prepare 2.5 mM AT-264 solution. Furthermore, this solution was diluted with the medium to prepare 0.625 mM and 0.0625 mM AT-264 solutions.
5×10^4 cells/mL solution of BxPC-3 was prepared using the medium containing 50% FBS. This suspension was seeded at 40 μL/well (2×10^3 cells) onto a 96-well plate pre-coated with Collagen type I, and 160 μL of AT-264 solution was added. This was cultured for six days in a CO2 incubator, and on the sixth day of culture, the number of viable cells was quantified by MTS assay.

Consider `N=C(N)c1cccc(CC(NS(=O)(=O)NCc2cccc3ccccc23)C(=O)N2CCCCC2C(=O)O)c1` (centres unmarked) [AT-264], for which the “uptake of [3H] glycylsarcosine into cells” value at human PepT2 is listed as “inhibited in a concentration-dependent manner”. At human PepT1, the “uptake of [14C] glycylsarcosine into cells” value is listed as “inhibited in a concentration-dependent manner”. Besides, the cell growth inhibition entry in data set [1] (AsPC-1, 0.5 mM AT-264, six days, MTS assay) is on record as “slight”. Moreover, the “morphological changes under the microscope” value in data set [1] (AsPC-1 in the presence of AT-264) and in data set [2] (BxPC-3 in the presence of AT-264) was “not observed” each time. Further, the inhibition (as a rule, the change of the read-out against control, counted positive when it falls) at 2000 µM is approximately 30% in data set [1] (Homo sapiens, ASPC1, 144 h, AsPC-1, 2 mM AT-264, six days, MTS assay) and approximately 75% in data set [2] (Homo sapiens, 144 h, BxPC-3, 2 mM AT-264, six days, MTS assay). This compound also displayed an inhibition at 500 µM in data set [2] (Homo sapiens, 144 h, BxPC-3, 0.5 mM AT-264, six days, MTS assay) of approximately 20%.

The record behind these values is US7731960B2, “Antibodies that inhibit transport activity of peptide transporters” (Chugai Seiyaku Kabushiki Kaisha, priority 2003, dated 2010).
